# Source: US20160109459A1, “Compositions And Methods For Heparan Sulfate As A Biomarker For Transplant Rejection” (Duke University, priority 2012, published 2016)
# What was measured:
# [1] = tested on: purified T cells from C57BL/6 mice stimulated with bone marrow-derived BALB/c DCs; experiment: Allogeneic T cell proliferation assay (3H-thymidine incorporation, IFN-γ ELISA); assay type: cell-based, mouse
# Description: Cells were co-cultured either alone (media) or in the presence of LPS (100 ng/mL), Pam3CSK4 (2 μg/mL), hyaluronan (HA) (100 μg/mL), sonicated-HA (sHA) (100 μg/mL), fibronectin (FN) (100 μg/mL), fibrinogen (Fbn) (100 μg/mL), heparan sulfate (HS) (100 μg/mL), HSP70 (5 μg/mL), HMGB1 (1 μg/mL), C12-iE-DAP (1 μg/mL), or L18-MDP (1 μg/mL) for 72 hours, and then pulsed ^3H-thymidine for 16 hours. Proliferation was determined by ^3H incorporation and results are expressed as cpm±SEM. Baseline alloreactivity is indicated by the dotted line; *p<0.05 compared with media alone. […] Results are representative of three independent experiments.
# T cell proliferation assay: DCs were generated from bone marrow as previously described. (Yang, Y. (2004) Nat. Immunol. 5:508-15). CD3^+ T cells were isolated from B6 mice using a CD3 negative selection magnetic bead kit (Invitrogen, Carlsbad, United States). Proliferation assays were performed as previously described. (Brennan, T. V. et al. (2008) Transplantation 85:247-55).
# Purified T cells from C57BL/6 mice were stimulated with bone marrow-derived DCs from BALB/c mice and their proliferation was measured by the incorporation of ^3H-thymidine. DAMPs tested included proteins—fibronectin (FN), fibrinogen (Fbn), heat shock protein 70 (HSP70), and high-mobility group protein B1 (HMGB1); and glucosaminoglycans—heparan sulfate (HS) and hyaluronan (HA). For comparison, two well-described PAMPs, lipopolysaccharide (LPS) and a synthetic tripalmitoylated lipopeptide (Pam3CSK4) that are ligands of the TLR4 homodimer and the TLR1/2 heterodimer, respectively, were tested. As nucleotide-binding domain, leucine-rich repeat containing receptors (NLRB) are another family of innate immune receptors, ligands of NLR1 (C12-iE-DAP) and NLR2 (L18-MDP) were further tested.
# Next, to investigate whether HS enhanced proliferation of allogeneic T cells was due to the stimulation of TLRs on DCs or T cells, because MyD88 is a common adaptor protein involved in the signal transduction of all TLRs with the exception of TLR3^9, HS was tested against DCs or T cells that were deficient for MyD88. For this purpose, T cells from WT or MyD88^−/− C57BL/6 mice were stimulated with DCs from WT or MyD88^−/− BALB/c mice in an allogeneic proliferation assay in the presence of HS, LPS, Pam3CSK4, or media alone.
# HS has been shown as a TLR4 ligand, (Johnson, G. B. et al., (2002) J. Immunol. 168:5233-39; Johnson, G. B., Brunn, G. J. & Platt, J. L. (2004) J. Immunol. 172:20-24). To determine whether the absence of TLR4 expression on stimulating DCs would reduce HS-induced alloreactive T cell proliferation equivalent to MyD88 deficiency, purified T cells from C57BL/6 mice were co-cultured with irradiated WT, TLR4^−/−, and MyD88^−/− BALB/c DCs and proliferation was measured by the incorporation of ^3H-thymidine.
# Cytokine analysis: Cell culture supernatants were obtained from DC cultures or T cell proliferation assays and assayed for IL-6, IL-12 and IFN-γ by ELISA (BD Biosciences) according to the manufacturer's standard protocols. HEK 293 supernatants were tested for human IL-8 by ELISA (BioLegend, San Diego, United States).
# Allogenic heart transplants were performed between C57BL/6 donors and (BALB/c x DBA.1)F1 recipients. Serum HS was measured by ELISA Immunohistologic staining for HS and CD3 was performed on heart tx tissue. Bone marrow derived dendritic cells (DCs) and purified T cells from WT-, MyD88- or TLR4-deficient mice were used in MLR assays to test for proliferation and cytokine production in response to HS. CD40 and CD80 expression on stimulated DCs was measured by FACS. T cell proliferation was determined by ^3H-thymidine incorporation and CFSE dye dilution assay. HEK293 NF-kB-luciferase reporter cell lines stably expressing CD14, MD2, and TLR4 or TLR2 were used in assays of HS activity.
# BALB/c DCs = experiment: DC maturation: surface expression of CD40 and CD80 by FACS; assay type: cell-based, mouse; details: 24 h; HS 100 μg/mL, Pam3CSK4 2 μg/mL
# Description: FIG. 3A is a graph showing WT, TLR4^−/−, or MyD88^−/− BALB/c DCs (2×10^5/well) were stimulated with LPS (100 ng/mL), HS (100 μg/mL), or Pam3CSK4 (2 μg/mL), or left unstimulated (media) for 24 hours, and measured for surface expression of co-stimulatory molecules CD40 and CD80 by FACS analysis. FIGS. 3B and 3C are graphs showing WT, MyD88^−/−, and TLR4^−/− BALB/c cultured DCs were co-cultured with media alone, LPS, HS, or Pam3CSK4 as in (A) and culture supernatants were tested for IL-6 (B) and IL-12 (C) by ELISA. Data are representative of three independent experiments; *p<0.05 compared with media alone.
# To investigate how activation of DCs by HS promoted the alloreactive T cell response, an as DC maturation and production of pro-inflammatory cytokines are key initial events in triggering adaptive immune responses, the ability of HS to upregulate DC expression of costimulatory molecules, CD40 and CD80, and pro-inflammatory cytokines, IL-6 and IL-12 was tested.
# Antibodies and flow cytometry: Anti-CD40 (HM40-3), anti-CD80 (16-10A1), anti-Thy1.1 (OX-7), anti-Ly5.1 (A20) anti-IFN-γ (XMG1.2), rat IgG1 isotype (R3-34), and the BrdU Flow Kit (FITC-labeled) were from BD Biosciences (San Jose, Calif., USA). Intracellular IFN-γ staining was performed as previously described. (Brennan, T. V. et al. (2008) Transplantation 85:247-55). For in vivo BrdU labeling, mice were injected with 50 μg BrdU/gm i.p. 1 hour prior to analysis. Collection of flow cytometric data was acquired using a FACSCanto (BD Biosciences), and events were analyzed using FloJo software (Tree Star, Inc., Ashland, United States).
# [2] = TLR4−/− BALB/c DCs as stimulators
substance,measurement,setting,value
heparan sulfate [HS],IFNg production in MLR assays,[1],increased
same,alloreactive T cell proliferation with MyD88−/− DCs as stimulators,[1]; MyD88−/− BALB/c DCs,abolished the enhanced proliferation
same,IFN-γ production with TLR4−/− DCs,[1]; [2],not able to increase
same,proliferation of allogeneic T cells above baseline with TLR4−/− DCs,[1]; [2],not able to increase
same,alloreactive T cell proliferation compared to media alone,"[1]; WT BALB/c DCs + C57BL/6 T cells, 72 h then 3H-thymidine 16 h, HS 100 μg/mL, HSP70 5 μg/mL, C12-iE-DAP 1 μg/mL, L18-MDP 1 μg/mL",significantly increased
same,upregulation of CD40 and CD80 on WT DCs,BALB/c DCs,upregulation
